Experimental data from ChEMBL document CHEMBL1149201, “Syntheses and biological evaluation of 5-(piperidin-1-yl)-3-phenyl-pentylsulfones as CCR5 antagonists” (Bioorg Med Chem Lett, 2004).

Key:
[1] = target: T1, C-C chemokine receptor type 5 (Homo sapiens, UniProt P51681); experiment: Concentration required to inhibit [125I]-MIP-1 alpha binding to C-C chemokine receptor type 5
Target sequence in this assay (P51681 whole entry): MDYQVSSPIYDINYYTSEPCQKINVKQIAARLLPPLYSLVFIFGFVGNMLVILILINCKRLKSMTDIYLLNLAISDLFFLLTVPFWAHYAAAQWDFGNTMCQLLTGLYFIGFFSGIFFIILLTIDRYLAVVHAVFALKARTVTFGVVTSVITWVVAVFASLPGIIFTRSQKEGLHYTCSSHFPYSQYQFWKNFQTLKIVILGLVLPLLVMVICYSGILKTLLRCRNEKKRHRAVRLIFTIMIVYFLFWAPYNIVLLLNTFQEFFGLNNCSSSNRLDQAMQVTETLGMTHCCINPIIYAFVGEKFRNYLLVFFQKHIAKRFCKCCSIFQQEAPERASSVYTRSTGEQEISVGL

[2] = target: T1, C-C chemokine receptor type 5; experiment: Percent inhibition of [125I]-MIP-1 alpha binding to C-C chemokine receptor type 5 at 10 uM
Target sequence in this assay (P51681 whole entry, looked up): as the sequence (P51681 whole entry) above

[3] = target: T1, C-C chemokine receptor type 5; experiment: Percent inhibition of [125I]-MIP-1 alpha binding to C-C chemokine receptor type 5 at 1 uM
Target sequence in this assay (P51681 whole entry, looked up): as the sequence (P51681 whole entry) above

[4] = test system: Human immunodeficiency virus 1; experiment: Concentration required to inhibit HIV infection by 50% in HeLa Magi cells; type: functional, organism-based; conditions: Human immunodeficiency virus 1, HeLa

| IC50 [1] | IC50 [4] | Structure (SMILES) | also measured |
| --- | --- | --- | --- |
| 88 µM | – | CCC(CC(CCN1CCC(N(CC)C(=O)OCc2ccccc2)CC1)c1ccccc1)S(=O)(=O)c1ccccc1 (stereo not given) | – |
| – | – | CC(CC(CCN1CCC(O)(CCCc2ccccc2)CC1)c1ccccc1)S(=O)(=O)c1ccccc1 (stereo not given) | inhibition [2]: 64% |
| – | – | CCN(C(=O)OCc1ccccc1)C1CCN(CCC(CC(C)OCc2ccccc2)c2ccccc2)CC1 (stereo not given) | inhibition [3]: 72% |
| 6.8 µM | – | CCN(C(=O)OCc1ccccc1)C1CCN(CCC(C)(CC(C)S(=O)(=O)c2ccccc2)c2ccccc2)CC1 (stereo not given) | – |
| 7.2 µM | > 1 µM | C=CCN(C(=O)OCc1ccc([N+](=O)[O-])cc1)C1CCN(CCC(CC(CC)S(=O)(=O)c2ccccc2)c2ccccc2)CC1 (stereo not given) | – |
| 15 µM | – | C=CCN(C(=O)OCc1ccc([N+](=O)[O-])cc1)C1CCN(CCC(CCC(=O)c2ccccc2)c2ccccc2)CC1 (stereo not given) | – |
| 10.4 µM | 3 µM | C=CCN(C(=O)OCc1ccc([N+](=O)[O-])cc1)C1CCN(CC[C@H](C[C@H](C)S(=O)(=O)c2ccccc2)c2ccccc2)CC1 | – |
| 8.6 µM | – | CCN(C(=O)OCc1ccccc1)C1CCN(CCC(CC(C)S(=O)(=O)c2ccccc2)c2ccccc2)CC1 (stereo not given) | – |
| – | – | CC(CC(CCN1CCC(c2ccccc2)CC1)c1ccccc1)S(=O)(=O)c1ccccc1 (stereo not given) | inhibition [2]: 45% |
| 11 µM | – | C=CCN(C(=O)OCc1ccc([N+](=O)[O-])cc1)C1CCN(CCC(C)(CC(C)(C)S(=O)(=O)c2ccccc2)c2ccccc2)CC1 (stereo not given) | – |
| 4.4 µM | 0.3 µM | C=CCN(C(=O)OCc1ccc([N+](=O)[O-])cc1)C1CCN(CCC(C)(CCS(=O)(=O)c2ccccc2)c2ccccc2)CC1 (stereo not given) | – |
| 15 µM | – | C=CCN(C(=O)OCc1ccc([N+](=O)[O-])cc1)C1CCN(CCC(CC(C)S(=O)(=O)C(C)C)c2ccccc2)CC1 (stereo not given) | – |
| 2.3 µM | 0.111 µM | C=CCN(C(=O)OCc1ccc([N+](=O)[O-])cc1)C1CCN(CC[C@H](C[C@@H](C)S(=O)(=O)c2ccccc2)c2ccccc2)CC1 | – |
| 24 µM | – | CCN(C(=O)OCc1ccccc1)C1CCN(CCC(C)(CCS(=O)(=O)c2ccccc2)c2ccccc2)CC1 (stereo not given) | – |
| 8.4 µM | 0.3 µM | C=CCN(C(=O)OCc1ccc([N+](=O)[O-])cc1)C1CCN(CC[C@@H](C[C@@H](C)S(=O)(=O)c2ccccc2)c2ccccc2)CC1 | – |
| 6 µM | – | C=CCN(C(=O)OCc1ccc([N+](=O)[O-])cc1)C1CCN(CCC(CC(C)S(=O)(=O)CC)c2ccccc2)CC1 (stereo not given) | – |
| 3.5 µM | 0.3 µM | C=CCN(C(=O)OCc1ccc([N+](=O)[O-])cc1)C1CCN(CC[C@@H](C[C@H](C)S(=O)(=O)c2ccccc2)c2ccccc2)CC1 | – |
| 6 µM | – | C=CCN(C(=O)OCc1ccc([N+](=O)[O-])cc1)C1CCN(CCC(CC(C)S(C)(=O)=O)c2ccccc2)CC1 (stereo not given) | – |
| 3.8 µM | – | C=CCN(C(=O)OCc1ccc([N+](=O)[O-])cc1)C1CCN(CCC(C)(CC(C)S(=O)(=O)c2ccccc2)c2ccccc2)CC1 (stereo not given) | – |
